This note sets out measurements from publication PMC8863579, “Effects of pharmacological inhibition of the sodium‐dependent phosphate cotransporter 2b (NPT2b) on intestinal phosphate absorption in mouse and rat models” (Pharmacology Research & Perspectives, 2022).

Values joined by “and” are separate entries in the source; they are usually repeats but may differ in a detail not shown here. Equal values may be shown once.

The target in one assay is T1, Human PiT1 (Homo sapiens, UniProt Q8WUM9).
T1 construct: Full Length cDNA Cloning and Generation of Cell Lines Over-Expressing Human NPT2a, NPT2c, Pit1, and Pit2; host or cells: CHO-K1, pcDNA3.1(+), constitutive
T1 sequence (Q8WUM9 1-679): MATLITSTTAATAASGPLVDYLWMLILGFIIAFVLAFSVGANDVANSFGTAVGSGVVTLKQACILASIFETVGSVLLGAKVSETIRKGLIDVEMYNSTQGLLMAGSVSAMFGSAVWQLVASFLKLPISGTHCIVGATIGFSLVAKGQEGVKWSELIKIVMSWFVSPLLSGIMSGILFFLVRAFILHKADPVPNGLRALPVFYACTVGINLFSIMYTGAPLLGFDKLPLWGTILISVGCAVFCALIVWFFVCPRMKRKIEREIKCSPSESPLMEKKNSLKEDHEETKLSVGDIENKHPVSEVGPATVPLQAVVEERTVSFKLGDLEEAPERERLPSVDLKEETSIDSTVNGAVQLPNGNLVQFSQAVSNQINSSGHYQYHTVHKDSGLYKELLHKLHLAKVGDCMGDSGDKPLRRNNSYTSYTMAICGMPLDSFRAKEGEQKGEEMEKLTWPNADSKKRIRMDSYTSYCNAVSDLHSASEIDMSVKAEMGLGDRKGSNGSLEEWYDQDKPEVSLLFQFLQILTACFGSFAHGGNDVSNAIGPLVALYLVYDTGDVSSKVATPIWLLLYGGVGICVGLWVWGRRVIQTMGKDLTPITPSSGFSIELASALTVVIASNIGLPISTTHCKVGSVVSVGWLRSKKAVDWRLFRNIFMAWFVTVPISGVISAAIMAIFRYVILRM
Put plainly: 33P-phosphate uptake in CHO cells over-expressing human PiT1. The class given is cell-based. As for the experimental part:
T‐Rex™ Chinese Hamster Ovary cells (CHO; Thermo Fisher Scientific) stably expressing human, mouse, or rat NPT2b under a tetracycline‐inducible promoter were generated using standard cDNA transfection and clone selection procedures (see Supporting Information). Cells were plated in 96‐well CytoStar‐T® scintillating microplates and were incubated overnight in growth media plus 100 ng/ml of tetracycline to induce expression of NPT2b. The next day, cells were washed 3 times with 200 µl assay buffer (137 mM NaCl, 5.4 mM KCl, 2.8 mM CaCl2, 1.2 mM MgSO4, and 14 mM Tris‐HCl buffer, pH 7.5). LY3358966 serially diluted 1‐to‐3 in DMSO was added to cells with assay buffer. An equal volume of H3 ^33PO4 (PerkinElmer) in assay buffer supplemented with 5 µM potassium phosphate was then added to initiate radiolabeled phosphate (^33P‐phosphate) uptake. […] The plate was immediately read on a Wallac MicroBeta Trilux liquid scintillation counter. Percent inhibition at all concentrations tested was calculated, and IC50 values were then determined using a 4‐parameter logistic curve fitting equation.
Similar methods were used to measure the effects of LY3358966 on other transporters of interest, except that constitutive promoters were used to generate CHO cells over‐expressing human PiT1 and PiT2. The ^33P‐phosphate uptake was measured after 45 min at 20°C for the NPT2a, NPT2c, PiT1, and PiT2 assays. […]

In the next assay the target is T2, NPT2b (Rattus norvegicus, UniProt Q9JJ09).
T2 construct: from tissue; host or cells: intestine of live Sprague Dawley rats, oral dosing
T2 sequence (Q9JJ09 1-695): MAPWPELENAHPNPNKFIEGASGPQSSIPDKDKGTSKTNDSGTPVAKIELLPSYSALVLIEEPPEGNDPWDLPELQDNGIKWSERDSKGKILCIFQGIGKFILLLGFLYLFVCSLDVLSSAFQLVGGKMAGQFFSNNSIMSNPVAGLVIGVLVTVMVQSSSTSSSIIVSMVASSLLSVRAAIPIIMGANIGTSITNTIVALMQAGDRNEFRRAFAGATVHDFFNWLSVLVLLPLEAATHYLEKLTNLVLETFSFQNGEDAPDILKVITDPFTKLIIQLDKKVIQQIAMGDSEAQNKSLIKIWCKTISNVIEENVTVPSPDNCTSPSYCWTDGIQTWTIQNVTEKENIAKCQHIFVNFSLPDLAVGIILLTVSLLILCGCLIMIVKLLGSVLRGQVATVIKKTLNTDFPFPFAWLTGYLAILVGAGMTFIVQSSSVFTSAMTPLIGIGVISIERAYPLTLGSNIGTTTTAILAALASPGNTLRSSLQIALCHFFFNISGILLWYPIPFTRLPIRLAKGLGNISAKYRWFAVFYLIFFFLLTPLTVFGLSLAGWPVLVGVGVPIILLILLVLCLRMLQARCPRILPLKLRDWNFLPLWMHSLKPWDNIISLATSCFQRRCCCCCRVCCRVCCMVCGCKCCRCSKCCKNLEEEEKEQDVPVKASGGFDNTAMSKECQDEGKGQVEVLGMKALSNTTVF
Put plainly: Acute phosphate uptake into plasma in rats. Format: in vivo. The note with it: 10 mg/kg. As for the experimental part:
A similar method was used to determine the ability of LY3358966 to inhibit acute phosphate uptake into plasma in Sprague Dawley rats (192–225 g, n = 14/group). In the rat studies, a 2 ml volume of the radioactive phosphate dosing solution (about 10 million dpm of H3 ^33PO4) was dosed to each animal. Due to the low inhibitory activity at 15 min after dosing the compound, the effect at 4 h was not determined.

Regarding `CC1(C)CN(C(=O)NCCCCO)CCN1Cc1cccc(C(=O)Nc2sc3c(c2C(=O)Nc2cc(F)c(CCc4ccc(C(=O)O)cc4)c(F)c2)CCCC3)c1` [LY3358966, 4‐[2‐[2,6‐difluoro‐4‐[[2‐[[3‐[[4‐(4‐hydroxybutylcarbamoyl)‐2,2‐dimethyl‐piperazin‐1‐yl]methyl]benzoyl]amino]‐4,5,6,7‐tetrahydrobenzothiophene‐3‐carbonyl]amino]phenyl]ethyl]benzoic acid], the IC50 – broadly, the midpoint of a concentration-inhibition curve – on Human PiT1 (45 min at 20°C) is above 100 µM. Also, the Selectivity at Human PiT1 (ratio of IC50 of human PiT1 assay to that of human NPT2b assay) was above 3086. The “decrease of acute phosphate uptake into plasma, mean ± SEM of three studies” value at NPT2b (15 min) is 22% and 22 ± 3%. For the same molecule, on NPT2b (two additional single studies), the “decrease of phosphate absorption (acute uptake into plasma)” value is 28.2% and 19.2%.
